# Laboratory results taken from patent US12492181B2, “Gem-disubstituted piperidine melanocortin subtype-2 receptor (MC2R) antagonists and uses thereof” (Crinetics Pharmaceuticals, Inc., priority 2019, dated 2025).
# Target: T1, hMC2 receptor (crude hMC2R membranes from CRE-bla-CHO-K1 cells stably expressing hMC2 receptor and hMRAP accessory protein) (Homo sapiens, UniProt Q01718)
# T1 construct: crude membrane fractions
# Assay: hMC2 membrane binding assay ([125I]ACTH (1-39) Tyr23, SPA)
# Conditions: displacement of 0.2 nM [125I]ACTH (1-39) Tyr23 from hMC2R membranes, 1.5 hours at room temperature; read-out: MC2R binding potency
# Method in brief: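 Ki values come from non-linear regression of SPA scintillation counts, with compounds displacing [125I]ACTH(1-39) Tyr23. Membranes come from CRE-bla-CHO-K1 cells stably expressing hMC2 receptor together with hMRAP. They are preincubated with WGA-coated PVT SPA beads in 50 mM HEPES pH 7.4 with 0.20% BSA, Mg2+, Ca2+ and protease inhibitors.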
# T1 sequence (Q01718 whole entry): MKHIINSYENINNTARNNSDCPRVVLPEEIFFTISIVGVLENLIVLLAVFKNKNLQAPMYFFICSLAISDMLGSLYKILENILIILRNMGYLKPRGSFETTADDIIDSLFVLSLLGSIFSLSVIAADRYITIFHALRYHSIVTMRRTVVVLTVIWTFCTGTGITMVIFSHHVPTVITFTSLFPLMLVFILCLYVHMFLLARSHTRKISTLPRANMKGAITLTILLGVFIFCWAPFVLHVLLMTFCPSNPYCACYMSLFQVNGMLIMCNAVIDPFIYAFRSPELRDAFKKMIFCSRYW
# T1 sequence (Q8TCY5 whole entry partner): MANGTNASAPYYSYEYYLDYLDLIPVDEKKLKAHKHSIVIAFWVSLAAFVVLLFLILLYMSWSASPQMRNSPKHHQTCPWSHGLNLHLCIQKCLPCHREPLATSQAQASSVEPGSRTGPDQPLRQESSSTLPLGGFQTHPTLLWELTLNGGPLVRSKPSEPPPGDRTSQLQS
row,Compound,Ki [nM]
1,"CCOc1ncccc1-c1ccc(C2(C(=O)N[C@H]3CCN(C)C3)CCN(c3ccc(C(F)(F)F)cc3C#N)CC2)nn1 [Compound 1-56, 1-[2-cyano-4-(trifluoromethyl)phenyl]-4-[6-(2-ethoxypyridin-3-yl)pyridazin-3-yl]-N-[(3S)-1-methylpyrrolidin-3-yl]piperidine-4-carboxamide]",< 10
2,"CC(C)CCn1nccc1-c1ccc(C2(C(=O)N[C@@H]3CCN(C)C3)CCN(c3ccc(C(F)(F)F)cc3C#N)CC2)cn1 [Compound 1-70, 1-[2-cyano-4-(trifluoromethyl)phenyl]-4-{6-[1-(3-methylbutyl)-1H-pyrazol-5-yl]pyridin-3-yl}-N-[(3R)-1-methylpyrrolidin-3-yl]piperidine-4-carboxamide]",10 to 100
3,"CCOc1ncccc1-c1ccc(C2(C(=O)N[C@H]3CCN(C)C3)CCN(c3ccc(C(F)(F)F)cn3)CC2)cn1 [Compound 1-35, 4-{2′-ethoxy-[2,3′-bipyridin]-5-yl}-N-[(3S)-1-methylpyrrolidin-3-yl]-1-[5-(trifluoromethyl)pyridin-2-yl]piperidine-4-carboxamide]",< 10
4,"CCOc1ccccc1-c1ccc(C2(C(=O)N[C@H]3CCN(C)C3)CCN(c3ccc(F)cc3C#N)CC2)cn1 [Compound 1-96, 1-(2-cyano-4-fluorophenyl)-4-[6-(2-ethoxyphenyl)pyridin-3-yl]-N-[(3S)-1-methylpyrrolidin-3-yl]piperidine-4-carboxamide]",< 10
5,"CCCOc1ccccc1-c1ccc(C2(C(=O)N[C@@H]3CCN(C)C3)CCN(c3ccc(C(F)(F)F)cc3C#N)CC2)cn1 [Compound 1-63, 1-[2-cyano-4-(trifluoromethyl)phenyl]-N-[(3R)-1-methylpyrrolidin-3-yl]-4-[6-(2-propoxyphenyl)pyridin-3-yl]piperidine-4-carboxamide]",< 10
6,"CCOc1ccccc1-c1ccc(C2(C(=O)N[C@H]3CCN(C)C3)CCN(c3ccc(Cl)cc3Cl)CC2)cn1 [Compound 1-95, 1-(2,4-dichlorophenyl)-4-[6-(2-ethoxyphenyl)pyridin-3-yl]-N-[(3S)-1-methylpyrrolidin-3-yl]piperidine-4-carboxamide]",< 10
7,"CCOc1ccccc1-c1ncc(C2(C(=O)N[C@@H]3CCN(C)C3)CCN(c3ccc(C(F)(F)F)cc3C#N)CC2)cc1F [Compound 1-123, 1-[2-cyano-4-(trifluoromethyl)phenyl]-4-[6-(2-ethoxyphenyl)-5-fluoropyridin-3-yl]-N-[(3R)-1-methylpyrrolidin-3-yl]piperidine-4-carboxamide]",< 10
8,"CCOc1ncccc1-c1ccc(C2(C(=O)N[C@H]3CCN(C)C3)CCN(c3ccc(Cl)cc3C#N)CC2)cn1 [Compound 1-34, 1-(4-chloro-2-cyanophenyl)-4-{2′-ethoxy-[2,3′-bipyridin]-5-yl}-N-[(3S)-1-methylpyrrolidin-3-yl]piperidine-4-carboxamide]",< 10
9,"CCOc1ncccc1-c1ccc(C2(C(=O)N[C@H]3CCNC3)CCN(c3ccc(C(F)(F)F)cc3C#N)CC2)cn1 [Compound 1-12, 1-[2-cyano-4-(trifluoromethyl)phenyl]-4-{2′-ethoxy-[2,3′-bipyridin]-5-yl}-N-[(3S)-pyrrolidin-3-yl]piperidine-4-carboxamide]",< 10
10,"CCOc1c(F)cccc1-c1ccc(C2(C(=O)N[C@@H]3CCN(C)C3)CCN(c3ccc(C(F)(F)F)cc3C#N)CC2)cn1 [Compound 1-72, 1-[2-cyano-4-(trifluoromethyl)phenyl]-4-[6-(2-ethoxy-3-fluorophenyl)pyridin-3-yl]-N-[(3R)-1-methylpyrrolidin-3-yl]piperidine-4-carboxamide]",< 10
11,1-{1-[2-cyano-4-(trifluoromethyl)phenyl]-4-[6-(1-methyl-1H-pyrrol-2-yl)pyridin-3-yl]piperidin-4-yl}-3-[(3R)-1-methylpyrrolidin-3-yl]urea [Compound 2-48],< 10
12,"Cn1cccc1-c1ccc(C2(C(=O)N[C@@H]3CN4CCC3CC4)CCN(c3ccc(C(F)(F)F)cc3C#N)CC2)cn1 [Compound 1-187, N-[(3S)-1-azabicyclo[2.2.2]octan-3-yl]-1-[2-cyano-4-(trifluoromethyl)phenyl]-4-[6-(1-methyl-1H-pyrrol-2-yl)pyridin-3-yl]piperidine-4-carboxamide]",< 10
13,"Cc1ccccc1-c1ccc(C2(C(=O)N[C@@H]3CCN(C)C3)CCN(c3ccc(C(F)(F)F)cc3C#N)CC2)cn1 [Compound 1-66, 1-[2-cyano-4-(trifluoromethyl)phenyl]-4-[6-(2-methylphenyl)pyridin-3-yl]-N-[(3R)-1-methylpyrrolidin-3-yl]piperidine-4-carboxamide]",< 10
14,"COc1ccc(F)cc1-c1ccc(C2(C(=O)N[C@H]3CCN(C)C3)CCN(c3ccc(C(F)(F)F)cc3C#N)CC2)cn1 [Compound 1-102, 1-[2-cyano-4-(trifluoromethyl)phenyl]-4-[6-(5-fluoro-2-methoxyphenyl)pyridin-3-yl]-N-[(3S)-1-methylpyrrolidin-3-yl]piperidine-4-carboxamide]",< 10

# The remaining lines, values ahead:
row,Ki [nM],Compound
1,< 10,"CN1CC[C@H](NC(=O)C2(c3cnc(-c4cccn4C)c(F)c3)CCN(c3ccc(C(F)(F)F)cc3F)CC2)C1 [Compound 1-192, 1-[2-fluoro-4-(trifluoromethyl)phenyl]-4-[5-fluoro-6-(1-methyl-1H-pyrrol-2-yl)pyridin-3-yl]-N-[(3S)-1-methylpyrrolidin-3-yl]piperidine-4-carboxamide]"
2,< 10,"CN1CCC[C@@H]1CNC(=O)C1(c2ccc(-c3cccn3C)nc2)CCN(c2ccc(C(F)(F)F)cc2C#N)CC1 [Compound 1-232, 1-[2-cyano-4-(trifluoromethyl)phenyl]-4-[6-(1-methyl-1H-pyrrol-2-yl)pyridin-3-yl]-N-{[(2R)-1-methylpyrrolidin-2-yl]methyl}piperidine-4-carboxamide]"
3,< 10,"CCOc1ncccc1-c1ccc(C2(C(=O)N[C@H]3CCN(C)C3)CCN(c3ccc(Cl)cc3C#N)CC2)nn1 [Compound 1-139, 1-(4-chloro-2-cyanophenyl)-4-[6-(2-ethoxypyridin-3-yl)pyridazin-3-yl]-N-[(3S)-1-methylpyrrolidin-3-yl]piperidine-4-carboxamide]"
4,< 10,"CO[C@@H]1CN(C)C[C@H]1NC(=O)C1(c2ccc(-c3cccn3C)nc2)CCN(c2ccc(C(F)(F)F)cc2C#N)CC1 (racemic) [Compound 1-268, rac-1-[2-cyano-4-(trifluoromethyl)phenyl]-N-[(3R,4R)-4-methoxy-1-methylpyrrolidin-3-yl]-4-[6-(1-methyl-1H-pyrrol-2-yl)pyridin-3-yl]piperidine-4-carboxamide]"
5,10 to 100,"CCOc1ncccc1-c1ccc(C2(NC(=O)[C@@H]3CCCN3C)CCN(c3ccc(C(F)(F)F)cc3C#N)CC2)cc1 [Compound 2-11, (2S)—N-{1-[2-cyano-4-(trifluoromethyl)phenyl]-4-[4-(2-ethoxypyridin-3-yl)phenyl]piperidin-4-yl}-1-methylpyrrolidine-2-carboxamide]"
6,< 10,"CN1C[C@H](NC(=O)C2(c3ccc(-c4cccn4C)nc3)CCN(c3ccc(C(F)(F)F)cc3C#N)CC2)[C@@H](O)C1 [Compound 1-270, 1-[2-cyano-4-(trifluoromethyl)phenyl]-N-[(3S,4S)-4-hydroxy-1-methylpyrrolidin-3-yl]-4-[6-(1-methyl-1H-pyrrol-2-yl)pyridin-3-yl]piperidine-4-carboxamide]"
7,< 10,"COc1ccccc1-c1ccc(C2(C(=O)NCCN(C)C)CCN(c3ccc(C(F)(F)F)cc3F)CC2)cn1 [Compound 1-254, N-[2-(dimethylamino)ethyl]-1-[2-fluoro-4-(trifluoromethyl)phenyl]-4-[6-(2-methoxyphenyl)pyridin-3-yl]piperidine-4-carboxamide]"
8,< 10,"CN1CC[C@H](NC(=O)C2(c3ccc(-c4cccn4C)nn3)CCN(c3ccc(C(F)(F)F)cc3C#N)CC2)C1 [Compound 1-168, 1-[2-cyano-4-(trifluoromethyl)phenyl]-4-[6-(1-methyl-1H-pyrrol-2-yl)pyridazin-3-yl]-N-[(3S)-1-methylpyrrolidin-3-yl]piperidine-4-carboxamide]"
9,< 10,"CN1CC[C@@H](OC(=O)NC2(c3ccc(-c4cccn4C)nc3)CCN(c3ccc(C(F)(F)F)cc3C#N)CC2)C1 [Compound 2-41, (3R)-1-methylpyrrolidin-3-yl N-{1-[2-cyano-4-(trifluoromethyl)phenyl]-4-[6-(1-methyl-1H-pyrrol-2-yl)pyridin-3-yl]piperidin-4-yl}carbamate]"
10,< 10,"CCOc1ncccc1-c1ccc(C2(C(=O)N[C@@H](C)CN(C)C)CCN(c3ccc(C(F)(F)F)cc3F)CC2)cn1 [Compound 1-317, N-[(2S)-1-(dimethylamino)propan-2-yl]-4-{2′-ethoxy-[2,3′-bipyridin]-5-yl}-1-[2-fluoro-4-(trifluoromethyl)phenyl]piperidine-4-carboxamide]"
11,< 10,"CCOc1ccccc1-c1ncc(C2(C(=O)N[C@H]3CCN(C)C3)CCN(c3ccc(C(F)(F)F)cc3Cl)CC2)cc1F [Compound 1-202, 1-[2-chloro-4-(trifluoromethyl)phenyl]-4-[6-(2-ethoxyphenyl)-5-fluoropyridin-3-yl]-N-[(3S)-1-methylpyrrolidin-3-yl]piperidine-4-carboxamide]"
12,10 to 100,"CN1CC[C@H](NC(=O)C2(c3ccc(-c4cccc(F)c4C#N)nc3)CCN(c3ccc(C(F)(F)F)cc3C#N)CC2)C1 [Compound 1-148, 4-[6-(2-cyano-3-fluorophenyl)pyridin-3-yl]-1-[2-cyano-4-(trifluoromethyl)phenyl]-N-[(3S)-1-methylpyrrolidin-3-yl]piperidine-4-carboxamide]"
13,10 to 100,"CCOc1ncccc1-c1ccc(C2(NCCNC)CCN(c3ccc(C(F)(F)F)cc3C#N)CC2)cn1 [Compound 2-15, 2-(4-{2′-ethoxy-[2,3′-bipyridin]-5-yl}-4-{[2-(methylamino)ethyl]amino}piperidin-1-yl)-5-(trifluoromethyl)benzonitrile]"
